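All cell lines were grown in 96-well plates and treated with compound for 48 hours. GI50 is the concentration that inhibits growth by half. TGI: concentration producing complete growth inhibition.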
Assays:
Experiment in all cases: NCI-60 cell line screen, 48 h
786-0 renal = test system: 786-0 renal
A498 renal = test system: A498 renal
A549 NSCLC = test system: A549 NSCLC
ACHN renal = test system: ACHN renal
BT-549 breast = test system: BT-549 breast
CAKI-1 renal = test system: CAKI-1 renal
CCRF-CEM leukemia = test system: CCRF-CEM leukemia
COLO 205 colon = test system: COLO 205 colon
DU-145 prostate = test system: DU-145 prostate
EKVX NSCLC = test system: EKVX NSCLC
HCC-2998 colon = test system: HCC-2998 colon
HCT-116 colon = test system: HCT-116 colon
HCT-15 colon = test system: HCT-15 colon
HL-60(TB) leukemia = test system: HL-60(TB) leukemia
HOP-62 NSCLC = test system: HOP-62 NSCLC
HOP-92 NSCLC = test system: HOP-92 NSCLC
HS 578T breast = test system: HS 578T breast
HT29 colon = test system: HT29 colon
IGROV1 ovarian = test system: IGROV1 ovarian
K-562 leukemia = test system: K-562 leukemia
KM12 colon = test system: KM12 colon
LOX IMVI melanoma = test system: LOX IMVI melanoma
M14 melanoma = test system: M14 melanoma
MALME-3M melanoma = test system: MALME-3M melanoma
MCF7 breast = test system: MCF7 breast
MDA-MB-231 breast = test system: MDA-MB-231 breast
MDA-MB-435 = test system: MDA-MB-435
MDA-MB-468 breast = test system: MDA-MB-468 breast
MOLT-4 leukemia = test system: MOLT-4 leukemia
NCI-H226 lung = test system: NCI-H226 lung
NCI-H23 lung = test system: NCI-H23 lung
NCI-H460 lung = test system: NCI-H460 lung
NCI-H522 lung = test system: NCI-H522 lung
NCI/ADR-RES ovarian = test system: NCI/ADR-RES ovarian
OVCAR-3 ovarian = test system: OVCAR-3 ovarian
OVCAR-4 ovarian = test system: OVCAR-4 ovarian
OVCAR-5 ovarian = test system: OVCAR-5 ovarian
OVCAR-8 ovarian = test system: OVCAR-8 ovarian
PC-3 prostate = test system: PC-3 prostate
RPMI-8226 leukemia = test system: RPMI-8226 leukemia
RXF 393 renal = test system: RXF 393 renal
SF-268 CNS = test system: SF-268 CNS
SF-295 CNS = test system: SF-295 CNS
SF-539 CNS = test system: SF-539 CNS
SK-MEL-2 melanoma = test system: SK-MEL-2 melanoma
SK-MEL-28 melanoma = test system: SK-MEL-28 melanoma
SK-MEL-5 melanoma = test system: SK-MEL-5 melanoma
SK-OV-3 ovarian = test system: SK-OV-3 ovarian
SN12C renal = test system: SN12C renal
SNB-19 CNS = test system: SNB-19 CNS
SNB-75 CNS = test system: SNB-75 CNS
SR leukemia = test system: SR leukemia
SW-620 colon = test system: SW-620 colon
T-47D breast = test system: T-47D breast
TK-10 renal = test system: TK-10 renal
U251 CNS = test system: U251 CNS
UACC-257 melanoma = test system: UACC-257 melanoma
UACC-62 melanoma = test system: UACC-62 melanoma
UO-31 renal = test system: UO-31 renal

## O=C(CSc1nnc(-c2ccc(-c3nc4ccc(Cl)cc4[nH]3)cc2)o1)Nc1ccc(Cl)cc1
786-0 renal
  GI50: 2210 nM
  TGI: 5.57 µM
A498 renal
  GI50: 16.2 µM
  TGI: 30.6 µM
A549 NSCLC
  GI50: 1800 nM
  TGI: 3.97 µM
ACHN renal
  GI50: 1910 nM
  TGI: 4.9 µM
BT-549 breast
  GI50: 2150 nM
  TGI: 6.23 µM
CAKI-1 renal
  GI50: 2430 nM
  TGI: 8.47 µM
CCRF-CEM leukemia
  GI50: 2590 nM
  TGI: 11 µM
COLO 205 colon
  GI50: 11.8 µM
  TGI: 36 µM
DU-145 prostate
  GI50: 4.14 µM
  TGI: 15.6 µM
EKVX NSCLC
  GI50: 2700 nM
  TGI: 12.7 µM
HCC-2998 colon
  GI50: 11.2 µM
  TGI: 27.3 µM
HCT-116 colon
  GI50: 2920 nM
  TGI: 11.8 µM
HCT-15 colon
  GI50: 2410 nM
  TGI: 11.6 µM
HL-60(TB) leukemia
  GI50: 2820 nM
  TGI: 12.5 µM
HOP-62 NSCLC
  GI50: 1620 nM
  TGI: 3.69 µM
HOP-92 NSCLC
  GI50: 2350 nM
  TGI: 9.26 µM
HS 578T breast
  GI50: 2270 nM
  TGI: 7.65 µM
HT29 colon
  GI50: 3.2 µM
  TGI: 10.9 µM
IGROV1 ovarian
  GI50: 4.66 µM
  TGI: 18.4 µM
K-562 leukemia
  GI50: 2190 nM
  TGI: 11.1 µM
KM12 colon
  GI50: 4.05 µM
  TGI: 18.5 µM
LOX IMVI melanoma
  GI50: 1400 nM
  TGI: 2800 nM
M14 melanoma
  GI50: 3.05 µM
  TGI: 11 µM
MALME-3M melanoma
  GI50: 1850 nM
  TGI: 4.31 µM
MCF7 breast
  GI50: 2820 nM
  TGI: 13.3 µM
MDA-MB-231 breast
  GI50: 1630 nM
  TGI: 3.49 µM
MDA-MB-435
  GI50: 3.07 µM
  TGI: 10.6 µM
MDA-MB-468 breast
  GI50: 2370 nM
  TGI: 8.01 µM
MOLT-4 leukemia
  GI50: 2810 nM
  TGI: 14.3 µM
NCI-H226 lung
  GI50: 1600 nM
  TGI: 4.36 µM
NCI-H23 lung
  GI50: 1990 nM
  TGI: 4.74 µM
NCI-H460 lung
  GI50: 1960 nM
  TGI: 4.29 µM
NCI-H522 lung
  GI50: 1850 nM
  TGI: 5.47 µM
NCI/ADR-RES ovarian
  GI50: 4.01 µM
  TGI: 18.9 µM
OVCAR-3 ovarian
  GI50: 3.18 µM
  TGI: 10.6 µM
OVCAR-4 ovarian
  GI50: 4.48 µM
  TGI: 19.3 µM
OVCAR-5 ovarian
  GI50: 3.11 µM
  TGI: 14.6 µM
OVCAR-8 ovarian
  GI50: 2040 nM
  TGI: 5.16 µM
PC-3 prostate
  GI50: 1900 nM
  TGI: 5.37 µM
RPMI-8226 leukemia
  GI50: 3.99 µM
  TGI: 17.4 µM
RXF 393 renal
  GI50: 1930 nM
  TGI: 5 µM
SF-268 CNS
  GI50: 3.04 µM
  TGI: 11.7 µM
SF-295 CNS
  GI50: 1990 nM
  TGI: 5.23 µM
SF-539 CNS
  GI50: 1670 nM
  TGI: 3.15 µM
SK-MEL-2 melanoma
  GI50: 3.02 µM
  TGI: 13.1 µM
SK-MEL-28 melanoma
  GI50: 1530 nM
  TGI: 3.33 µM
SK-MEL-5 melanoma
  GI50: 2920 nM
  TGI: 11.2 µM
SK-OV-3 ovarian
  GI50: 5.93 µM
  TGI: 20.8 µM
SN12C renal
  GI50: 1720 nM
  TGI: 4.03 µM
SNB-19 CNS
  GI50: 3.45 µM
  TGI: 12.3 µM
SNB-75 CNS
  GI50: 2330 nM
  TGI: 8.66 µM
SR leukemia
  GI50: 1850 nM
  TGI: 6.63 µM
SW-620 colon
  GI50: 2940 nM
  TGI: 14.1 µM
T-47D breast
  GI50: 2800 nM
  TGI: 19.8 µM
TK-10 renal
  GI50: 15.6 µM
  TGI: 32.2 µM
U251 CNS
  GI50: 1960 nM
  TGI: 4.07 µM
UACC-257 melanoma
  GI50: 2620 nM
  TGI: 10 µM
UACC-62 melanoma
  GI50: 1700 nM
  TGI: 3.86 µM
UO-31 renal
  GI50: 3.59 µM
  TGI: 15.8 µM

Source: PubChem BioAssay (NCI)
